SMILES strings stand for the structures.

One test deals with T1, IIaWT (Homo sapiens, UniProt P00734).
T1 construct: yielding mIIa as the sole intermediate, followed by cleavage at Arg-271 to produce IIa
Description: Binding of DAPA to thrombin variants (fluorescence). Particulars: fluorescence studies, data not shown. The method, then:
Front face fluorescence measurements were performed in a plate reader (SpectraMax Gemini, Molecular Devices) by using black polystyrene plates (no. 3650, Corning). Reaction mixtures (100 μl) prepared in assay buffer contained increasing concentrations of DAPA (24 concentrations, 0-100 μM) with no addition, 0.5 μM IIa, or 0.5 μM IIaTAT. […] Subtraction of the intensity measured with DAPA alone yielded the fluorescence change associated with the binding of DAPA to Ha or IIaTAT. Fluorescence data were analyzed as described in ref 7 to infer the equilibrium dissociation constant.

For the next test, the target named is T2, IITAT (Homo sapiens, UniProt P00734, E366T/I364T/V365A).
T2 construct: made in house
Briefly: Rescue of IITAT cleavage at Arg-271 by DAPA (areas under mIIa progress curves). It is filed as biochemical. Particulars: DAPA 0-300 μM; 5.4 μM IITAT, 0.8 nM prothrombinase; read-out: DAPA concentration for half-maximal effect on rescue of second half-reaction in IITAT cleavage. On the procedure:
Reaction mixtures prepared in assay buffer and maintained at 25° C., contained 5.4 μM IIWT, IITAT, or IIQ155,Q284, 20 μM PCPS, 28 nM Va, and indicated concentrations of DAPA. Cleavage was initiated by the addition of 0.8 nM Xa and samples (15 μl), withdrawn at the indicated times, were quenched by mixing with an equal volume of 2 NuPAGE LDS sample buffer (Invitrogen) containing 50 mM EDTA. Quenched samples were treated with 71 mM DTT, heated at 89° C. for 5 min, and subjected to electrophoresis (4.2 μg protein per lane) by using NuPAGE 4-12% gels and Mes running buffer (Invitrogen). Protein bands visualized by staining with Coomassie brilliant blue R-250 were imaged and analyzed by quantitative densitometry by using procedures described in detail in refs. 4 and 15. Analysis of the cleavage of FPR-IIQ320 and NaSCN-treated IIQ320 was performed as described above except that reaction mixtures contained 5.8 μM prothrombin variant, 50 μM PCPS, 60 nM Va, 40 μM DAPA, and 1 nM Xa.
Effects of DAPA were assessed by integrating areas under the progress curves for mIIa formation and its disappearance for the different prothrombin variants (FIG. 5). Normalized areas obtained in the activation of IIWT or IIQ155,Q284 were identical and were independent of DAPA varied between 0 and 300 μM for IIQ155,Q284 or 20 and 300 μM for IIWT. […]

In a further test the target is mIIa. To be noted: read-out: Kd of DAPA for mIIa; cited from earlier work.
The target in a further test is T3, mIIaTAT (Homo sapiens, UniProt P00734, E366T/I364T/V365A).
T3 construct: made in house; host or cells: IITAT from HEK293 cells, cleaved in the reaction by prothrombinase
Briefly: DAPA binding to zymogen-like mIIaTAT (interpretation of rescue data). To be noted: possible interpretation of rescue findings. From the text: Ligands that bind with high affinity to the proteinase are established to enhance the ability of the zymogen to adopt a proteinase-like configuration (13, 20, 23). Our findings are consistent with two possible interpretations. […] Alternatively, DAPA could act by selectively binding and favoring the proteinase in an equilibrium between zymogen-like and proteinase-like forms of mIIaTAT in which the zymogen-like state is highly favored.

For a further test, the target named is IIa. Particulars: read-out: Kd of DAPA for IIa; cited from earlier work.

Regarding `CCC1CCN(C(=O)C(CCCNC(=N)N)NS(=O)(=O)c2cccc3c(N(C)C)cccc23)CC1` [DAPA, dansyl-L-arginine N-(3-ethyl-1,5-pentanediyl)amide], the “equilibrium dissociation constant of DAPA for IIaWT” value on IIaWT is listed as “nanomolar”. In addition, the EC50 on IITAT is around 20 µM. For the same molecule, the figures for the Kd on mIIa, on mIIaTAT and on IIa were around 0.001 µM, 30 µM and around 0.001 µM, respectively.

Values taken from patent US8999322B2, “Compositions and methods for modulating hemostasis” (The United States of America National Institutes of Health …, priority 2005, dated 2015).
